Converted amounts (≈) assume the structure as drawn. Read-outs that look alike come from different tables or passages of the source.
How the values were obtained:
S. aureus Topo IV = biological target: T1, S. aureus Topo IV (Staphylococcus aureus, UniProt Q2FYS4); test: biochemical; conditions: for IC50: mean of two to four measurements, read-out: Topoisomerase IV IC50 S. aureus
T1 construct: purchased Inspiralis (Norwich, UK)
Procedure: (§1) A Topo IV Relaxation High Throughput Plate assay kit, purchased from Inspiralis (Norwich. UK) was used to determine IC50 values of compounds on S. aureus and E. coli. […] Biotinylated oligonucleotide in wash buffer was immobilized onto the wells, and the excess oligonucleotide was washed off with wash buffer and ultrapure water. 1.5 U of S. aureus or E. coli […] enzyme was incubated together with 0.75 μg of supercoiled pNO1 plasmid as a substrate in the presence of 3 μL inhibitor solution in 10% DMSO and 0.008% Tween 20 at 37 °C for 30 min in a final reaction volume of 30 μL in dilution buffer (50 mM Tris-HCl (pH 7.5), 1 mM DTT, 1 mM EDTA, 40% (w/v) glycerol for S. aureus and 40 mM HEPES, KOH (pH 7.6), 100 mM potassium glutamate, 1 mM DTT, 1 mM EDTA, and 40% (v/v) glycerol for E. coli). The reactions were stopped by adding the TF buffer (50 mM NaOAc (pH 4.7), 50 mM NaCl, and 50 mM MgCl2) to allow the triplex formation (biotin-oligonucleotide-plasmid) for additional 30 min. Afterward, the unbound plasmid was washed off using TF buffer, and the solution of Promega Diamond dye in T10 buffer (10 mM Tris-HCl (pH 8.0), 1 mM EDTA) was added. […] IC50 value represents the mean of two to four independent measurements.

E. coli Topo IV = biological target: T2, E. coli Topo IV (Escherichia coli, UniProt P0AFI2); test: Topo IV Relaxation High Throughput Plate assay, E. coli; type: biochemical; conditions: for LE Topo IV E. coli: LE = (1.37/HA) × pIC50
T2 construct: purchased Inspiralis (Norwich, UK)
Procedure: as §1

Human topoisomerase IIα = biological target: T3, Human topoisomerase IIα (Homo sapiens, UniProt P11388); test: Human topoisomerase II Alpha Relaxation High Throughput Plate assay; type: biochemical; conditions: 0.5 h; residual activity of the enzyme at compound concentration 10 μM, mean ± SD; read-out: Human Topo II (% RA)
T3 construct: purchased Inspiralis (Norwich, UK)
Procedure: A Human topoisomerase II Alpha Relaxation High Throughput Plate assay kit, purchased from Inspiralis (Norwich, UK) was used to evaluate the selectivity of compounds for the bacterial enzymes over the homologous human topoisomerase II. […] Biotinylated oligonucleotide in wash buffer was immobilized onto the wells and the excess oligonucleotide was washed off with wash buffer. […] The reactions were stopped by adding the TF buffer (50 mM NaOAc (pH 4.7), 50 mM NaCl, and 50 mM MgCl2) to allow the triplex formation (biotin-oligonucleotide-plasmid) for additional 30 min. Afterward, the unbound plasmid was washed off using TF buffer, and the solution of Promega Diamond dye in T10 buffer (10 mM Tris-HCl (pH 8.0), 1 mM EDTA) was added. […] Screening was performed at inhibitor concentrations of 10 μM. Raw data were converted to mean ± SD percentage of residual activity of the enzyme obtained by two independent measurements.

S. aureus (ATCC 29213) = test: MIC broth microdilution, S. aureus ATCC 29213; type: cell-based; conditions: Staphylococcus aureus, ATCC29213
Procedure: (§2) Antimicrobial testing was carried out by the broth microdilution method in 96-well plate format following the Clinical and Laboratory Standards Institute (CLSI) guidelines and European Committee on Antimicrobial Susceptibility Testing (EUCAST) recommendations. Bacterial suspension of specific bacterial strain equivalent to 0.5 McFarland turbidity standard was diluted with cation-adjusted Mueller Hinton broth with TES (Thermo Fisher Diagnostic, Landsmeer, The Netherlands), to obtain a final inoculum of 10^5 CFU/mL. Compounds dissolved in DMSO and inoculum were mixed together and incubated for 18–20 h at 35 °C. Suspensions of Mycobacterium sp. were prepared into a tube of Middelbrook 7H9 broth supplemented with 5% OADC (Thermo Scientific, Trek Diagnostic Systems, West Sussex, UK) and incubated for at least 10 days. After incubation the minimal inhibitory concentration (MIC) values were determined by visual inspection as the lowest dilution of compounds showing no turbidity. Tetracycline was used as a positive control on every assay plate.

MRSA = test: MIC broth microdilution, MRSA; type: cell-based, methicillin-resistant S. aureus; conditions: Staphylococcus aureus, read-out: MIC MRSA
Procedure: as §2

MRSA (QA-11.7) = test: MIC broth microdilution, MRSA QA-11.7; type: cell-based, methicillin-resistant S. aureus; conditions: Staphylococcus aureus, 20 h, read-out: MIC MRSA (QA-11.7)
Procedure: as §2

MRSA (QA-11.4) = test: MIC broth microdilution, MRSA QA-11.4; type: cell-based, methicillin-resistant S. aureus; conditions: Staphylococcus aureus, 20 h, resistant to cefoxitin, read-out: MIC MRSA (QA-11.4)
Procedure: as §2

[1] = system: E. faecalis DRK 057 (ATCC 29212); test: MIC broth microdilution, E. faecalis; type: cell-based; conditions: Enterococcus faecalis, ATCC29212; read-out: MIC E. faecalis DRK 057 (ATCC 29212)
Procedure: as §2

S. pneumoniae (QA-10/02) = test: MIC broth microdilution, S. pneumoniae; type: cell-based; conditions: Streptococcus pneumoniae
Procedure: as §2

E. coli (ATCC 25922) = test: MIC broth microdilution, E. coli ATCC 25922; type: cell-based; conditions: Escherichia coli
Procedure: as §2

E. coli (QA-11.7) = test: MIC broth microdilution, E. coli QA-11.7; type: cell-based; conditions: Escherichia coli, 20 h; multi-resistant isolate (ampicillin, azithromycin, cefotaxime, ertapenem, imipenem and others); read-out: MIC E. coli (QA-11.7)
Procedure: as §2

E. coli (QA-11.3) = test: MIC broth microdilution, E. coli QA-11.3; type: cell-based; conditions: Escherichia coli, 20 h; read-out: MIC E. coli (QA-11.3)
Procedure: as §2

E. coli D22 = test: MIC broth microdilution, E. coli D22; type: cell-based; conditions: Escherichia coli, D22; mutation in the lpxC gene that increases membrane permeability; read-out: MIC E. coli D22
Procedure: as §2

[2] = system: A. baumannii 8C6 (GES-14); test: MIC broth microdilution, A. baumannii; type: cell-based; conditions: Acinetobacter baumannii; read-out: MIC A. baumannii 8C6 (GES-14)
Procedure: as §2

[3] = system: P. aeruginosa RDK 184 (DSM 939); test: MIC broth microdilution, P. aeruginosa; type: cell-based; conditions: Pseudomonas aeruginosa, DSM939; read-out: MIC P. aeruginosa RDK 184 (DSM 939)
Procedure: as §2

[4] = system: C. jejuni RDK 135 (ATCC 33560); test: MIC broth microdilution, C. jejuni; type: cell-based; conditions: Campylobacter jejuni, ATCC33560; read-out: MIC C. jejuni RDK 135 (ATCC 33560)
Procedure: as §2

M. smegmatis = test: MIC, M. smegmatis; type: cell-based, Mycobacterium smegmatis; conditions: Mycolicibacterium smegmatis; read-out: MIC M. smegmatis
Procedure: as §2

[5] = S. aureus ATCC 29213, read-out: S. aureus MIC (converted)
[6] = read-out: MIC S. aureus (ATCC 29213)
[7] = ATCC25922, read-out: MIC E. coli (ATCC 25922)
[8] = ATCC25922, E. coli ATCC 25922, read-out: E. coli MIC (converted)

T2 sequence (P0AFI2 whole entry): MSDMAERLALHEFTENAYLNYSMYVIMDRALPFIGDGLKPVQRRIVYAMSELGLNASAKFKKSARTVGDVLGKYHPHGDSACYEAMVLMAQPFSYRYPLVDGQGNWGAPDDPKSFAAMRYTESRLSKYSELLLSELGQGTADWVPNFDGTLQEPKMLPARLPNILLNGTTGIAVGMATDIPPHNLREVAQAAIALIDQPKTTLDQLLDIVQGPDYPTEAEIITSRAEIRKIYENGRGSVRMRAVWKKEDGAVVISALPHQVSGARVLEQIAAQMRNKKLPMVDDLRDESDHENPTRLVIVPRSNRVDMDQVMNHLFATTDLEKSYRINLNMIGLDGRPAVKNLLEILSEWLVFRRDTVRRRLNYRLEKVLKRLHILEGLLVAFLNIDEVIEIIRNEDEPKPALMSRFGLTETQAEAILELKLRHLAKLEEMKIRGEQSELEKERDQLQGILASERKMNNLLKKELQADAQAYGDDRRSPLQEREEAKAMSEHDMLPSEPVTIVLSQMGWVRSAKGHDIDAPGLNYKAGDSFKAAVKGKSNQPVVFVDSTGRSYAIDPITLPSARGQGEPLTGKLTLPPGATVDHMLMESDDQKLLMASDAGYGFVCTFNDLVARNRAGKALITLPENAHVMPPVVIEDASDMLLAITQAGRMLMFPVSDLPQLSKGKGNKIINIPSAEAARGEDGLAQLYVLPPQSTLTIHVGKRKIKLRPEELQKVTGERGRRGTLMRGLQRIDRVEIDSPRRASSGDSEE
T2 sequence (P20083 whole entry, further chain): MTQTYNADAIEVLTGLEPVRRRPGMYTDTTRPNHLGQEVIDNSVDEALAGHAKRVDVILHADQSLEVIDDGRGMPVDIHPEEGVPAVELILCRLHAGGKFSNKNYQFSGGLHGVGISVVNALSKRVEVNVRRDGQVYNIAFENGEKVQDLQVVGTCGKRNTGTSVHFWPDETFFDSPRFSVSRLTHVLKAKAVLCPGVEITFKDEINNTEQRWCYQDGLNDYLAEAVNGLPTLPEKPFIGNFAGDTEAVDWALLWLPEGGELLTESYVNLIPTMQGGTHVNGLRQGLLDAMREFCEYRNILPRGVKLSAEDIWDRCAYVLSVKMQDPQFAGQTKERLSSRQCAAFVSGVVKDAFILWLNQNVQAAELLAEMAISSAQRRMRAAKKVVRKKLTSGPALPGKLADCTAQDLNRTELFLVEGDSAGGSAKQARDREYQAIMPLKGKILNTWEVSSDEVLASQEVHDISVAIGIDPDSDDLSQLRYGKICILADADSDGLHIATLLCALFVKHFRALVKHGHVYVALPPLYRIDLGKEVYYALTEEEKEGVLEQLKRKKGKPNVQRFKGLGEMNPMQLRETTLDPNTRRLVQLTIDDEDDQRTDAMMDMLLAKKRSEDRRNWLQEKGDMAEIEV
T1 sequence (Q2FYS5 whole entry): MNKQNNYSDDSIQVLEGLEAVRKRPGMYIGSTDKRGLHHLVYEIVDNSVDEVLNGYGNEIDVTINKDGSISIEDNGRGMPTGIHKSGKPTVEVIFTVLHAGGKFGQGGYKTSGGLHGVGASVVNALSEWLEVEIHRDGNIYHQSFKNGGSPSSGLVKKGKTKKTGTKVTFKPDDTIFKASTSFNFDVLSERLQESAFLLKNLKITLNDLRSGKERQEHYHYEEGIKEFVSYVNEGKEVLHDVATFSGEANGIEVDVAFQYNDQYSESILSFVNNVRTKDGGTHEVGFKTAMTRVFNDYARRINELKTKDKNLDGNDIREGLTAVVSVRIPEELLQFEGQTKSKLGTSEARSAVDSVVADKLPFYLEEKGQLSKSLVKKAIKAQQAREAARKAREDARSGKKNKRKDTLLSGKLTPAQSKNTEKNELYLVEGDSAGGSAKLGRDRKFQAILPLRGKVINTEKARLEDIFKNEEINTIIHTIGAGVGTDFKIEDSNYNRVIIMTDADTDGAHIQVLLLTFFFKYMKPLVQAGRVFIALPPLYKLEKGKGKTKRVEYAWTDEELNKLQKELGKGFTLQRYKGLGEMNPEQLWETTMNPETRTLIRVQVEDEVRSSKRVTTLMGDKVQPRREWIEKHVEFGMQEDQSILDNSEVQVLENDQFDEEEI
T1 sequence (Q2FYS4 whole entry): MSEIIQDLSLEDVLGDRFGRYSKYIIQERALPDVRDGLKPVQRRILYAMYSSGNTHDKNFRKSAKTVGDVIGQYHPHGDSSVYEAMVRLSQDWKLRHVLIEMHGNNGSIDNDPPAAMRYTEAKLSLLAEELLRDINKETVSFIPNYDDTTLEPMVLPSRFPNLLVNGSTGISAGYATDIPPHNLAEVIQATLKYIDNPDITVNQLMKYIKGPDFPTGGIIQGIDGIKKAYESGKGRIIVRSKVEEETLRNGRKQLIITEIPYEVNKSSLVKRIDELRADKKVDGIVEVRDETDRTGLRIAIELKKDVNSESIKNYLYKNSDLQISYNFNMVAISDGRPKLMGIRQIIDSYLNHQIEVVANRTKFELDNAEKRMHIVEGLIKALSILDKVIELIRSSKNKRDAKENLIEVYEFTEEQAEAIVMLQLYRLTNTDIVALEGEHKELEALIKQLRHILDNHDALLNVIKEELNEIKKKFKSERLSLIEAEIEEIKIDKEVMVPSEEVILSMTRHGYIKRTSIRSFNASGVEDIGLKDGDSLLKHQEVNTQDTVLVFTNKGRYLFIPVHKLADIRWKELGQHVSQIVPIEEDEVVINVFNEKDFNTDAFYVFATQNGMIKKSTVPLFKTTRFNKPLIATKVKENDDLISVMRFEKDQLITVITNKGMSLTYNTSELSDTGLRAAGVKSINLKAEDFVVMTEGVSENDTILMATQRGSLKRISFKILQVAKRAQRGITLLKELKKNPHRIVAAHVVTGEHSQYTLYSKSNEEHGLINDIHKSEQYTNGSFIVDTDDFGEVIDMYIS
T3 sequence (P11388 whole entry): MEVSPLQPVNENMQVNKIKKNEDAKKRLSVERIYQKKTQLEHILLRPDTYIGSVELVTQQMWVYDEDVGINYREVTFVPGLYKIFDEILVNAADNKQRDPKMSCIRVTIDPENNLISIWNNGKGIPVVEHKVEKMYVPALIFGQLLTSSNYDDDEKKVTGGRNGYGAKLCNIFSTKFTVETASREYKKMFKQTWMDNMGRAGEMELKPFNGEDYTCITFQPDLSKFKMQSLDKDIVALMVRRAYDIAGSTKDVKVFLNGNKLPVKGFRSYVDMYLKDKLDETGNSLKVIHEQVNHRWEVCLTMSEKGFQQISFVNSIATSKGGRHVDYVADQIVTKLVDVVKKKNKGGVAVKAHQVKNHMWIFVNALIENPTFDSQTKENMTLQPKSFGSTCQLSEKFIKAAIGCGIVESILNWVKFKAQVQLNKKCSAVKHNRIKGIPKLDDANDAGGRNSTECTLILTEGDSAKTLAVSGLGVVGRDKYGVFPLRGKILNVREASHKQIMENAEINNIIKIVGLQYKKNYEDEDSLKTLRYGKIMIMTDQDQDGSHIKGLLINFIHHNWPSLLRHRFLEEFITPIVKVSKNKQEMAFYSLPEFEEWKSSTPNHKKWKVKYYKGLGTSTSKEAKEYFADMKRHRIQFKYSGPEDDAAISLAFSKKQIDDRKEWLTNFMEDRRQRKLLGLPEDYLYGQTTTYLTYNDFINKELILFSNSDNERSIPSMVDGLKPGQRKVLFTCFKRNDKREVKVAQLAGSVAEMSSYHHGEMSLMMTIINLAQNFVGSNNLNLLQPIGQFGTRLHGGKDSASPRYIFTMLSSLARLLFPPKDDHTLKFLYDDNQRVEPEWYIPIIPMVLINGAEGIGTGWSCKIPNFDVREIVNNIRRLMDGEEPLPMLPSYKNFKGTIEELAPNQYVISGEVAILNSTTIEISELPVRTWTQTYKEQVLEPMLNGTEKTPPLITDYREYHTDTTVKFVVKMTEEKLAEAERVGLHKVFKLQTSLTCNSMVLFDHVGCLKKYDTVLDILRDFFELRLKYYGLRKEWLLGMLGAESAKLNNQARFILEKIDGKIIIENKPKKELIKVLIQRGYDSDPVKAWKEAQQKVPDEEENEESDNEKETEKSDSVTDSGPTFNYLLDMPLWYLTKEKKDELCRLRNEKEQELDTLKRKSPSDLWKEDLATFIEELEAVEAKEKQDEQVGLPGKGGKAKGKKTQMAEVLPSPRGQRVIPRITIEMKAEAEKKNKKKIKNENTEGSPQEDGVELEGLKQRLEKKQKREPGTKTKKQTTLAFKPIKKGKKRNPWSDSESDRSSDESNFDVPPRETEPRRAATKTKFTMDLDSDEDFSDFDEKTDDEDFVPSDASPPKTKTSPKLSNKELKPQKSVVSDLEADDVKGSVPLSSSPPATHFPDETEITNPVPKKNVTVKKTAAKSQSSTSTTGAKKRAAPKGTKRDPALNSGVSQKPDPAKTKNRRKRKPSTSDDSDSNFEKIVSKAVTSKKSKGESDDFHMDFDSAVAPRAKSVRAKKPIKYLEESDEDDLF

Row | Structure (SMILES) | IC50 (S. aureus Topo IV) [nM] | IC50 (E. coli Topo IV) [nM] | LE Topo IV E. coli (E. coli Topo IV) | remaining activity at 10 µM (Human topoisomerase IIα) [%] | MIC (S. aureus (ATCC 29213); [5]) [µM] | MIC (S. aureus (ATCC 29213); [6]) [µg/mL] | MIC (MRSA) [µg/mL] | MIC (MRSA (QA-11.7)) [µg/mL] | MIC (MRSA (QA-11.4)) [µg/mL] | MIC [1] [µg/mL] | MIC (S. pneumoniae (QA-10/02)) [µg/mL] | MIC (E. coli (ATCC 25922); [7]) [µg/mL] | MIC (E. coli (QA-11.7)) [µg/mL] | MIC (E. coli (QA-11.3)) [µg/mL] | MIC (E. coli D22) [µg/mL] | MIC [2] [µg/mL] | MIC [3] [µg/mL] | MIC [4] [µg/mL] | MIC (M. smegmatis) [µg/mL] | MIC (E. coli (ATCC 25922); [8]) [µM] | other results
1 | COc1ccc2nccc(CCN3CCC(NCc4nc5ccccc5n4C)CC3)c2n1 [Compound 3, 1-(2-(6-Methoxy-1,5-naphthyridin-4-yl)ethyl)-N-((1-methyl-1H-benzo[d]imidazol-2-yl)methyl)piperidin-4-amine] | > 100000 | 1180 ± 90 | 0.25 | 94.7 ± 4.82 | 2.32 | 1 | 2 (≈ 4.65 µM) | 8 (≈ 18.6 µM) | 4 (≈ 9.29 µM) | 4 (≈ 9.29 µM) | 2 (≈ 4.65 µM) | > 128 | 64 (≈ 149 µM) | 128 (≈ 297 µM) | > 128 | > 128 | > 128 | 1 (≈ 2.32 µM) | 4 (≈ 9.29 µM) |  | MIC (E. coli (ATCC 25922); ATCC25922, 20 h, E. coli ATCC 25922, read-out: E. coli MIC (converted)): 297 µM
2 | COc1ccc2nccc(CCN3CCC(NCc4cnn(-c5ccc(F)cc5)c4)CC3)c2n1 [Compound 4, N-((1-(4-Fluorophenyl)-1H-pyrazol-4-yl)methyl)-1-(2-(6-methoxy-1,5-naphthyridin-4-yl)ethyl)piperidin-4-amine] | > 100000 | 120 ± 10 | 0.28 | 88.41 ± 0.15 | 4.34 | 2 | 2 (≈ 4.34 µM) | 2 (≈ 4.34 µM) | 8 (≈ 17.4 µM) | 8 (≈ 17.4 µM) | 4 (≈ 8.69 µM) | 32 | 16 (≈ 34.7 µM) | 8 (≈ 17.4 µM) | 16 (≈ 34.7 µM) | 32 (≈ 69.5 µM) | > 128 | 128 (≈ 278 µM) | ≤ 1 | 69.5 | 
3 | COc1ccc2nccc(CCN3CCC(NCc4cnn(-c5ccccc5)c4)CC3)c2n1 [Compound 5, 1-(2-(6-Methoxy-1,5-naphthyridin-4-yl)ethyl)-N-((1-phenyl-1H-pyrazol-4-yl)methyl)piperidin-4-amine] | 29600 ± 540 | 85 ± 2 | 0.29 | 82.1 ± 2.52 | 0.57 | 0.25 | 0.5 (≈ 1.13 µM) | 0.5 (≈ 1.13 µM) | 1 (≈ 2.26 µM) | 1 (≈ 2.26 µM) | 0.5 (≈ 1.13 µM) | 16 | 2 (≈ 4.52 µM) | 2 (≈ 4.52 µM) | 1 (≈ 2.26 µM) | 4 (≈ 9.04 µM) | > 128 | 16 (≈ 36.2 µM) | 0.25 (≈ 0.565 µM) | 36.1 | LE Topo IV S. aureus (S. aureus Topo IV; LE = (1.37/HA) × pIC50): 0.19
